# Laboratory results taken from patent publication US8431568B2, “Aromatic heterocyclic fused indolobenzadiazepine HCV NS5B inhibitors” (Bristol-Myers Squibb Company, priority 2008, dated 2013).
# Experiments:
# [1] = target: T1, HCV NS5B RdRp genotype 1b (Hepatitis C virus genotype 1b, UniProt Q9WMX2); test: Modified HCV NS5B RdRp enzyme assay (preincubation protocol); type: biochemical
# T1 construct: The protein was expressed with an 18 amino acid C-terminal truncation to enhance the solubility; made in house; host or cells: E. coli BL21(DE3), pET21a vector
# T1 sequence (Q9WMX2 2420-2992): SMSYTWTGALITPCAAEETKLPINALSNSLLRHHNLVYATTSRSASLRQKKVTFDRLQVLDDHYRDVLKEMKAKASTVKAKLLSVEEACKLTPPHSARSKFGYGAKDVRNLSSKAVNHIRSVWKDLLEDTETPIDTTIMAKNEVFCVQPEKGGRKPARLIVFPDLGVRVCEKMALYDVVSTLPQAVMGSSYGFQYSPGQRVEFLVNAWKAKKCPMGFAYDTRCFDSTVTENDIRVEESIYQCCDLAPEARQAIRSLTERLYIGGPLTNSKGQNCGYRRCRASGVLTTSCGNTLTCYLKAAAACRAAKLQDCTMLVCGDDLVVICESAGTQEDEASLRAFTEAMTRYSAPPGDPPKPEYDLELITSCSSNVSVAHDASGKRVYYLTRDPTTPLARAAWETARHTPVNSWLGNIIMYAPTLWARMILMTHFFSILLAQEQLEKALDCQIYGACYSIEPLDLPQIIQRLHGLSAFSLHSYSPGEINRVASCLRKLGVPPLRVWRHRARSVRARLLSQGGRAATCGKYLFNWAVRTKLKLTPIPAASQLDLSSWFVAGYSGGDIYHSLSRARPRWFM
# Procedure: HCV NS5B RdRp Cloning, Expression, and Purification.
# The cDNA encoding the NS5B protein of HCV, genotype 1b, was cloned into the pET21a expression vector. The protein was expressed with an 18 amino acid C-terminal truncation to enhance the solubility. The E. coli competent cell line BL21(DE3) was used for expression of the protein. Cultures were grown at 37° C. for ˜4 hours until the cultures reached an optical density of 2.0 at 600 nm. The cultures were cooled to 20° C. and induced with 1 mM IPTG. Fresh ampicillin was added to a final concentration of 50 μg/ml and the cells were grown overnight at 20° C.
# Cell pellets (3 L) were lysed for purification to yield 15-24 mgs of purified NS5B. The lysis buffer consisted of 20 mM Tris-HCl, pH 7.4, 500 mM NaCl, 0.5% triton X-100, 1 mM DTT, 1 mM EDTA, 20% glycerol, 0.5 mg/ml lysozyme, 10 mM MgCl2, 15 ug/ml deoxyribonuclease I, and Complete TM protease inhibitor tablets (Roche). After addition of the lysis buffer, frozen cell pellets were resuspended using a tissue homogenizer. To reduce the viscosity of the sample, aliquots of the lysate were sonicated on ice using a microtip attached to a Branson sonicator. The sonicated lysate was centrifuged at 100,000×g for 1 hr at 4° C. and filtered through a 0.2 μm filter unit (Corning).
# The protein was purified using three sequential chromatography steps: Heparin sepharose CL-6B, polyU sepharose 4B, and Hitrap SP sepharose (Pharmacia). The chromatography buffers were identical to the lysis buffer but contained no lysozyme, deoxyribonuclease I, MgCl2 or protease inhibitor and the NaCl concentration of the buffer was adjusted according to the requirements for charging the protein onto the column. Each column was eluted with a NaCl gradient which varied in length from 5-50 column volumes depending on the column type. After the final chromatography step, the resulting purity of the enzyme is >90% based on SDS-PAGE analysis. The enzyme was aliquoted and stored at −80° C.
# Standard HCV NS5B RdRp Enzyme Assay.
# HCV RdRp genotype 1b assays were run in a final volume of 60 μl in 96 well plates (Costar 3912). The assay buffer is composed of 20 mM Hepes, pH 7.5, 2.5 mM KCl, 2.5 mM MgCl2, 1 mM DTT, 1.6 U RNAse inhibitor (Promega N2515), 0.1 mg/ml BSA (Promega R3961), and 2% glycerol. All compounds were serially diluted (3-fold) in DMSO and diluted further in water such that the final concentration of DMSO in the assay was 2%. HCV RdRp genotype 1b enzyme was used at a final concentration of 28 nM. A polyA template was used at 6 nM, and a biotinylated oligo-dT12 primer was used at 180 nM final concentration. Template was obtained commercially (Amersham 27-4110). Biotinylated primer was prepared by Sigma Genosys. 3H-UTP was used at 0.6 μCi (0.29 μM total UTP). Reactions were initiated by the addition of enzyme, incubated at 30° C. for 60 min, and stopped by adding 25 μl of 50 mM EDTA containing SPA beads (4 μg/μl, Amersham RPNQ 0007). Plates were read on a Packard Top Count NXT after >1 hr incubation at room temperature.
# Modified HCV NS5B RdRp Enzyme Assay.
# A modified enzyme assay was performed essentially as described for the standard enzyme assay except for the following: The biotinylated oligo dT12 primer was precaptured on streptavidin-coated SPA beads by mixing primer and beads in assay buffer and incubating at room temperature for one hour. Unbound primer was removed after centrifugation. The primer-bound beads were resuspended in 20 mM Hepes buffer, pH 7.5 and used in the assay at final concentrations of 20 nM primer and 0.67 μg/μl beads. Order of addition in the assay: enzyme (14 nM) was added to diluted compound followed by the addition of a mixture of template (0.2 nM), 3H-UTP (0.6 μCi, 0.29 μM), and primer-bound beads, to initiate the reaction; concentrations given are final. Reactions were allowed to proceed for 4 hours at 30° C.
# IC50 values for compounds were determined using seven different [I]. […]
# HCV replicon cells = test: HCV replicon FRET assay; type: cell-based; details: Hepatitis C virus
# Text: To perform the HCV FRET screening assay, 96-well cell culture plates were used. The FRET peptide (Anaspec, Inc.) (Taliani et al., Anal. Biochem. 1996, 240, 60-67) contains a fluorescence donor, EDANS, near one end of the peptide and an acceptor, DABCYL, near the other end. The fluorescence of the peptide is quenched by […] resonance energy transfer (RET) between the donor and the acceptor, but as the NS3 protease cleaves the peptide the products are released from RET quenching and the fluorescence of the donor becomes apparent. The assay reagent was made as follows: 5× cell Luciferase cell culture lysis reagent from Promega (#E153A) diluted to 1× with dH2O, NaCl added to 150 mM final, the FRET peptide diluted to 20 uM final from a 2 mM stock.
# To prepare plates, HCV replicon cells, with or without a Renilla luciferase reporter gene, were trypsinized and placed into each well of a 96-well plate with titrated test compounds added in columns 3 through 12; columns 1 and 2 contained a control compound (HCV protease inhibitor), and the bottom row contained cells without compound. The plates were then placed in a CO2 incubator at 37° C.
# Subsequent to addition of the test compounds described above (FRET Assay Preparation), at various times the plate was removed and Alamar blue solution (Trek Diagnostics, #00-100) was added per well as a measure of cellular toxicity. After reading in a Cytoflour 4000 instrument (PE Biosystems), plates were rinsed with PBS and then used for FRET assay by the addition of 30 ul of the FRET peptide assay reagent described above (FRET Assay Preparation) per well. The plate was then placed into the Cytoflour 4000 instrument which had been set to 340 excite/490 emission, automatic mode for 20 cycles and the plate read in a kinetic mode. Typically, the signal to noise using an endpoint analysis after the reads was at least three-fold. Alternatively, after Alamar blue reading, plates were rinsed with PBS, 50 ul of DMEM (high glucose) without phenol red was added and plates were then used for luciferase assay using the Promega Dual-Glo Luciferase Assay System.
# Compound analysis was determined by quantification of the relative HCV replicon inhibition and the relative cytotoxicity values. To calculate cytoxicity values, the average Alamar Blue fluorescence signals from the control wells were set as 100% non-toxic. The individual signals in each of the compound test wells were then divided by the average control signal and multiplied by 100% to determine […]. To calculate the HCV replicon inhibition values, an average background value was obtained from the two wells containing the highest amount of HCV protease inhibitor at the end of the assay period. These numbers were similar to those obtained from naïve Huh-7 cells.
# The background numbers were then subtracted from the average signal obtained from the control wells and this number was used as 100% activity. The individual signals in each of the compound test wells were then divided by the averaged control values after background subtraction and multiplied by 100% to determine percent activity. EC50 values for a protease inhibitor titration were calculated as the concentration which caused a 50% reduction in FRET or luciferase activity. The two numbers generated for the compound plate, percent cytoxicity and percent activity were used to determine compounds of interest for further analysis.
Compound,IC50 [1] [nM],EC50 (HCV replicon cells) [nM]
"Cc1cn2c(n1)Cn1c(c(C3CCCCC3)c3ccc(C(=O)O)cc31)-c1ccccc1-2 [Example 7, 10-Cyclohexyl-2-methyl-4H-imidazo[1,2-a]indolo[1,2-d][1,4]benzodiazepine-7-carboxylic acid]",130,2850
"CN(C)S(=O)(=O)NC(=O)c1ccc2c(C3CCCCC3)c3n(c2c1)Cc1nccn1-c1ccccc1-3 [Example 6, 10-Cyclohexyl-N-((dimethylamino)sulfonyl)-4H-imidazo[1,2-a]indolo[1,2-d][1,4]benzodiazepine-7-carboxamide]",19,390
"CN(C)S(=O)(=O)NC(=O)c1ccc2c(C3CCCCC3)c3n(c2c1)Cc1nncn1-c1ccccc1-3 [Example 2, 10-Cyclohexyl-N-((dimethylamino)sulfonyl)-4H-indolo[1,2-d][1,2,4]triazolo[4,3-a][1,4]benzodiazepine-7-carboxamide]",20,160
"O=C(O)c1ccc2c(C3CCCCC3)c3n(c2c1)Cc1nccn1-c1ccccc1-3 [Example 5, 10-Cyclohexyl-4H-imidazo[1,2-a]indolo[1,2-d][1,4]benzodiazepine-7-carboxylic acid]",26,740
"Cc1cn2c(n1)Cn1c(c(C3CCCCC3)c3ccc(C(=O)NS(=O)(=O)N(C)C)cc31)-c1ccccc1-2 [Example 8, 10-Cyclohexyl-N-((dimethylamino)sulfonyl)-2-methyl-4H-imidazo[1,2-a]indolo[1,2-d][1,4]benzodiazepine-7-carboxamide]",33,710
"O=C(O)c1ccc2c(C3CCCCC3)c3n(c2c1)Cc1nncn1-c1ccccc1-3 [Example 1, 10-Cyclohexyl-4H-indolo[1,2-d][1,2,4]triazolo[4,3-a][1,4]benzodiazepine-7-carboxylic acid]",140,910
"Cc1nnc2n1-c1ccccc1-c1c(C3CCCCC3)c3ccc(C(=O)O)cc3n1C2 [Example 3, 10-Cyclohexyl-1-methyl-4H-indolo[1,2-d][1,2,4]triazolo[4,3-a][1,4]benzodiazepine-7-carboxylic acid]",170,770
"Cc1nnc2n1-c1ccccc1-c1c(C3CCCCC3)c3ccc(C(=O)NS(=O)(=O)N(C)C)cc3n1C2 [Example 4, 10-Cyclohexyl-N-((dimethylamino)sulfonyl)-1-methyl-4H-indolo[1,2-d][1,2,4]triazolo[4,3-a][1,4]benzodiazepine-7-carboxamide]",54,320
